Data published in US20230303483A1, “USE OF STROBILURIN TYPE COMPOUNDS FOR COMBATING PHYTOPATHOGENIC FUNGI CONTAINING AN AMINO ACID SUBSTITUTION F129L IN THE MITOCHONDRIAL CYTOCHROME B PROTEIN CONFERRING RESISTANCE TO QO […]” (BASF SE, priority 2020, published 2023).

Key:
[1] = test system: Phakopsora pachyrhizi (strain containing the amino acid substitution F129L in the mitochondrial cytochrome b protein); assay: Use example 1: protective control of soybean rust on soybeans (PHAKPA P2), inoculation 2 days after spraying; format: in vivo; conditions: % diseased leaf area on soybean, 16 ppm spray, inoculation 2 days after treatment, untreated controls usually >85 %
Experimental: (§1) The compound was dissolved in a mixture of acetone and/or dimethylsulfoxide and the wetting agent/emulsifier Wettol, which is based on ethoxylated alkylphenoles, in a ratio (volume) solvent-emulsifier of 99 to 1 to give a total volume of 5 ml. Subsequently, water was added to total volume of 100 ml. This stock solution was then diluted with the described solvent-emulsifier-water mixture to the final concentration given in the table below.
Use example 1. Protective control of soybean rust on soybeans caused by Phakopsora pachyrhizi (PHAKPA P2)
(§2) Leaves of potted soybean seedlings were sprayed to run-off with the previously described spray solution, containing the concentration of active ingredient or their mixture as described below. The plants were allowed to air-dry. The trial plants were cultivated for 2 days in a greenhouse chamber at 23-27° C. and a relative humidity between 60 and 80 %. Then the plants were inoculated with spores of Phakopsora pachyrhizi. The strain used contains the amino acid substitution F129L in the mitochondrial cytochrome b protein conferring resistance to Qo inhibitors. To ensure the success the artificial inoculation, the plants were transferred to a humid chamber with a relative humidity of about 95 % and 20 to 24° C. for 24 hr. The trial plants were cultivated for up to 14 days in a greenhouse chamber at 23 to 27° C. and a relative humidity between 60 and 80 %. The extent of fungal attack on the leaves was visually assessed as % diseased leaf area, the disease level of untreated controls was usually higher than 85 %.
(§3) All test results below are given for the control of phytopathogenic fungi containing the amino acid substitution F129L in the mitochondrial cytochrome b protein conferring resistance to Qo inhibitors.

[2] = test system: Phakopsora pachyrhizi (strain containing the amino acid substitution F129L in the mitochondrial cytochrome b protein); assay: Use example 2: protective control of soybean rust on soybeans (PHAKPA P6), inoculation six days after spraying; format: in vivo; conditions: % diseased leaf area on soybean, 16 ppm spray, inoculation six days after treatment, untreated controls usually >85 %
Experimental: as §1
Use example 2. Protective control of soybean rust on soybeans caused by Phakopsora pachyrhizi (PHAKPA P6)
as §2, with “active ingredient as described” for “active ingredient or their mixture as described”, “cultivated for six days in” for “cultivated for 2 days in”, “% and 23 to 27°” for “% and 20 to 24°”, “23 to 27° C. for” for “20 to 24° C. for”
as §3

SMILES	PHAKPA Disease level (%) P2 at 16 ppm [1] [%]	PHAKPA Disease level (%) P6 at 16 ppm [2] [%]
CO/N=C(/C(=O)OC)c1cccc(C)c1CO/N=C(\C)C#Cc1ccccc1C [Example 23]	0	0
CO/N=C(/C(=O)OC)c1ccccc1CO/N=C(\C)C#Cc1ccccc1C(F)(F)F [Example 67]	50	60
CO/N=C(/C(=O)OC)c1ccccc1CO/N=C(\C)C#Cc1ccc(Cl)cc1C(F)(F)F [Example 94]	53	47
CO/N=C(/C(=O)OC)c1cccc(C)c1CO/N=C(\C)C#Cc1cccc(C(F)(F)F)c1 [Example 39]	2	1
CNC(=O)/C(=N/OC)c1ccccc1CO/N=C(\C)C#Cc1cccc2c1OC(F)(F)O2 [Example 101]	4	2
CNC(=O)/C(=N/OC)c1cccc(C)c1CO/N=C(\C)C#Cc1cccc(F)c1 [Example 38]	0	1
CO/N=C(/C(=O)OC)c1cccc(C)c1CO/N=C(\C)C#Cc1ccccc1C(F)(F)F [Example 66]	17	30
CO/N=C(/C(=O)OC)c1ccccc1CO/N=C(\C)C#Cc1ccc(Cl)cc1-c1ccc(F)cc1 [Example 118]	3	4
CNC(=O)/C(=N/OC)c1cccc(C)c1CO/N=C(\C)C#Cc1ccc(OC(F)(F)F)cc1 [Example 21, (2E)-2-Methoxyimino-N-methyl-2-[3-methyl-2-[[(E)-[1-methyl-3-[4-(trifluoromethoxy)phenyl]prop-2-ynylidene]amino]oxymethyl]phenyl]acetamide]	25	33
CNC(=O)/C(=N/OC)c1ccccc1CO/N=C(\C)C#Cc1c(Cl)cccc1Cl [Example 107]	27	15
CO/C=C(/C(=O)OC)c1ccccc1CO/N=C(\C)C#Cc1ccc(F)cc1 [Example 114]	0	0
CNC(=O)/C(=N/OC)c1ccccc1CO/N=C(\C)C#Cc1ccccc1Cl [Example 76]	3	4
CO/N=C(/C(=O)OC)c1cccc(C)c1CO/N=C(\C)C#Cc1ccc(C)cc1 [Example 20]	2	1
CNC(=O)/C(=N/OC)c1ccccc1CO/N=C(\C)C#Cc1ccc(OC(F)(F)F)cc1 [Example 11, (2E)-2-Methoxyimino-N-methyl-2-[2-[[(E)-[1-methyl-3-[4-(trifluoromethoxy)phenyl]-prop-2-ynylidene]amino]oxymethyl]phenyl]acetamide]	53	67
CNC(=O)/C(=N/OC)c1ccccc1CO/N=C(\C)C#Cc1ccc(F)cc1 [Example 8]	0	0.7
CNC(=O)/C(=N/OC)c1ccccc1CO/N=C(\C)C#Cc1c(C2CC2)cccc1C(F)(F)F [Example 119]	77	77
CO/C=C(/C(=O)OC)c1cccc(C)c1CO/N=C(\C)C#Cc1ccc(F)cc1 [Example 70]	0	0
CNC(=O)/C(=N/OC)c1ccccc1CO/N=C(\C)C#Cc1ccc(Cl)cc1 [Example 4]	3	7
CO/N=C(/C(=O)OC)c1ccccc1CO/N=C(\C)C#Cc1ccccc1 [Example 1, Methyl (2E)-2-methoxyimino-2-[2-[[(E)-(1-methyl-3-phenyl-prop-2-ynylidene)amino]-oxymethyl]phenyl]acetate]	38	58
CO/N=C(/C(=O)OC)c1ccccc1CO/N=C(\C)C#Cc1ccc(OCC(F)(F)F)cc1 [Example 98]	73	93
CO/N=C(/C(=O)OC)c1ccccc1CO/N=C(\C)C#Cc1ccc(Cl)cc1C(C)C [Example 109]	11	12
CO/N=C(/C(=O)OC)c1ccccc1CO/N=C(\C)C#Cc1ccc(OC2CC2)cc1 [Example 102]	80	63

SMILES	PHAKPA Disease level (%) P2 at 16 ppm [1] [%]	PHAKPA Disease level (%) P6 at 16 ppm [2] [%]
CNC(=O)/C(=N/OC)c1cccc(C)c1CO/N=C(\C)C#Cc1ccc(C)cc1 [Example 19]	0	0.6
CO/N=C(/C(=O)OC)c1cccc(C)c1CO/N=C(\C)C#Cc1cccc(C)c1 [Example 42]	3	6
CNC(=O)/C(=N/OC)c1ccccc1CO/N=C(\C)C#Cc1ccc(Cl)cc1C(F)(F)F [Example 99]	0	0
CO/C=C(/C(=O)OC)c1cccc(C)c1CO/N=C(\C)C#Cc1ccc(F)cc1C(=O)OC [Example 124]	14	53
CO/N=C(/C(=O)OC)c1ccccc1CO/N=C(\C)C#Cc1ccc(Cl)cc1F [Example 90]	30	57
CNC(=O)/C(=N/OC)c1ccccc1CO/N=C(\C)C#Cc1cccc(Cl)c1 [Example 73]	1	0
CO/N=C(/C(=O)OC)c1cccc(C)c1CO/N=C(\C)C#Cc1ccc(F)cc1 [Example 34]	0	0
CNC(=O)/C(=N/OC)c1cccc(C)c1CO/N=C(\C)C#Cc1ccccc1OC(F)(F)F [Example 25]	0	0
CNC(=O)/C(=N/OC)c1ccccc1CO/N=C(/C#Cc1ccc(Cl)cc1)COC [Example 112]	38	25
CO/N=C(/C(=O)OC)c1ccccc1CO/N=C(\C)C#Cc1cccc(F)c1 [Example 35]	32	25
CNC(=O)/C(=N/OC)c1ccccc1CO/N=C(\C)C#Cc1ccccc1OC(F)(F)F [Example 9]	0	5
CO/N=C(/C(=O)OC)c1ccccc1CO/N=C(\C)C#Cc1ccc(F)cc1 [Example 7]	30	50
CO/N=C(/C(=O)OC)c1cccc(C)c1CO/N=C(\C)C#Cc1cccc(F)c1 [Example 36]	4	9
CNC(=O)/C(=N/OC)c1ccccc1CO/N=C(\C)C#Cc1ccc(Cl)cc1C(C)C [Example 110]	0	2
CO/N=C(/C(=O)OC)c1ccccc1CO/N=C(\C)C#Cc1cccc(Br)c1 [Example 6]	25	43
CNC(=O)/C(=N/OC)c1cccc(C)c1CO/N=C(\C)C#Cc1cccc(C)c1 [Example 57]	0	0
CO/N=C(/C(=O)OC)c1cccc(C)c1CO/N=C(\C)C#Cc1cccc(Br)c1 [Example 30]	0	0
CNC(=O)/C(=N/OC)c1ccccc1CO/N=C(\C)C#Cc1ccc(Oc2ccc(F)cc2)cc1 [Example 111]	33	23
CNC(=O)/C(=N/OC)c1ccccc1CO/N=C(\C)C#Cc1ccc(Cl)cc1C1CC1 [Example 86]	5	18
CNC(=O)/C(=N/OC)c1cccc(C)c1CO/N=C(\C)C#Cc1cccc(OC(F)(F)F)c1 [Example 27]	0	0
CO/N=C(/C(=O)OC)c1cccc(C)c1CO/N=C(\C)C#Cc1ccccc1OC(F)(F)F [Example 26]	2	6
